Assay results: patent US11325899B2, “Benzofurane and benzothiophene derivatives as PGE2 receptor modulators” (IDORSIA PHARMACEUTICALS LTD, priority 2017, dated 2022)

Assays:
PTGER4 (EP4) = molecular target: T1, PTGER4 (EP4) (Homo sapiens, UniProt P35408); experiment: hEP4 b-arrestin assay (PathHunter HEK 293 PTGER4 b-arrestin cells); format: cell-based; details: antagonistic activity, beta-arrestin assay; read-out: hEP4 b-arr IC50
T1 construct: host or cells: HEK 293 (PathHunter PTGER4 b-arrestin cell line)
T1 sequence (P35408 whole entry): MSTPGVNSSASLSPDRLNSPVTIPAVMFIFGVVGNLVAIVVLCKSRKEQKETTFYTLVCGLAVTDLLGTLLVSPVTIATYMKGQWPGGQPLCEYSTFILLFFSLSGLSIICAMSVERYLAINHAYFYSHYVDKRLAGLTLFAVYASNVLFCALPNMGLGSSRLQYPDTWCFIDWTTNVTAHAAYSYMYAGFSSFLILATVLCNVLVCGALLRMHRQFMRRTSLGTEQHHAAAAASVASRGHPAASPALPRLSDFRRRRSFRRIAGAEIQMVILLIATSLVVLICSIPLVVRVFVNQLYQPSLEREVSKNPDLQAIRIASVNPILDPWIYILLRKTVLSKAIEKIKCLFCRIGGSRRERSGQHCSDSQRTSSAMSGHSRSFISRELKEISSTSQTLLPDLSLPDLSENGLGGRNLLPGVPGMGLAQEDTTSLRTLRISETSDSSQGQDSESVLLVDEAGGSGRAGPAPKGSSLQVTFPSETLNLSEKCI
In short: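 β-Arrestin recruitment to EP4 was read as enzyme-fragment-complementation chemiluminescence in stably transfected HEK 293 cells. After 15 min compound preincubation at 37 °C (ranges 10 μM–2 nM or 1 μM–0.2 nM), cells were stimulated 120 min with PGE2 at 20 nM, its EC80. IC50 values were fitted from duplicates, with repeat measurements averaged.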

EP2 receptor = molecular target: T2, EP2 receptor (Homo sapiens, UniProt P43116); experiment: hEP2 cAMP assay (SF295 glioblastoma cells, HTRF cAMP, PGE2 stimulation); format: cell-based; details: antagonistic activity
T2 construct: SF295 glioblastoma cells express high endogenous EP2 and no EP4; host or cells: SF295 glioblastoma cells
T2 sequence (P43116 whole entry): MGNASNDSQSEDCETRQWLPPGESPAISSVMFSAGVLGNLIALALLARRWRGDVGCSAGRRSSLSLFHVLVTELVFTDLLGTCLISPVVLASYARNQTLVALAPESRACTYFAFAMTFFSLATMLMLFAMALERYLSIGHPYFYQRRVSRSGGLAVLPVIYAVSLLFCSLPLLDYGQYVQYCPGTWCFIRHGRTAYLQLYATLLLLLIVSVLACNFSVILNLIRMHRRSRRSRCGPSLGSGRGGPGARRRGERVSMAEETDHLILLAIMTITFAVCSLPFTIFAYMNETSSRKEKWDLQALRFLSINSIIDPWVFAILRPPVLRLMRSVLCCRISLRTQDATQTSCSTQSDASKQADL
In short: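 HTRF cAMP readout gave % cAMP relative to DMSO, fitted to IC50 with duplicate points. Compounds were preincubated 45 min at room temperature with EP2-expressing, EP4-negative SF295 cells in IBMX (2 mM)-containing buffer before a 30 min challenge with PGE2 at 75 nM final, its EC80.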

CCOc1cc(-c2cc(NCCc3c(C)oc4c(OC)cc(Cl)cc34)ncn2)ccc1OCC(=O)O [Example 121, (4-{6-[2-(5-Chloro-7-methoxy-2-methyl-benzofuran-3-yl)-ethylamino]-pyrimidin-4-yl}-2-ethoxy-phenoxy)-acetic acid]
IC50 (PTGER4 (EP4)): 75 nM | IC50 (EP2 receptor): 155 nM

CCOc1cc(-c2cc(NCCc3c(C)sc4c(C)cccc34)ncn2)ccc1OCC(=O)O [Example 122, (4-{6-[2-(2,7-Dimethyl-benzo[b]thiophen-3-yl)-ethylamino]-pyrimidin-4-yl}-2-ethoxy-phenoxy)-acetic acid]
IC50 (PTGER4 (EP4)): 83 nM | IC50 (EP2 receptor): 40 nM

CCCCOc1cc(-c2cc(NCCc3c(C)sc4c(C)cc(F)cc34)ncn2)ccc1C(=O)O [Example 127, 2-Butoxy-4-{6-[2-(5-fluoro-2,7-dimethyl-benzo[b]thiophen-3-yl)-ethylamino]-pyrimidin-4-yl}-benzoic acid]
IC50 (PTGER4 (EP4)): 225 nM | IC50 (EP2 receptor): 106 nM

Cc1oc2ccccc2c1CCNc1cc(-c2ccc(C(=O)O)c(SC3CCC3)c2)ncn1 [Example 129, 2-Cyclobutylsulfanyl-4-{6-[2-(2-methyl-benzofuran-3-yl)-ethylamino]-pyrimidin-4-yl}-benzoic acid]
IC50 (PTGER4 (EP4)): 1410 nM | IC50 (EP2 receptor): 15 nM

Cc1sc2c(C)cccc2c1CCNc1cc(-c2ccc(C(=O)O)c(SC3CCC3)c2)ncn1 [Example 130, 2-Cyclobutylsulfanyl-4-{6-[2-(2,7-dimethyl-benzo[b]thiophen-3-yl)-ethylamino]-pyrimidin-4-yl}-benzoic acid]
IC50 (PTGER4 (EP4)): 193 nM | IC50 (EP2 receptor): 20 nM

Cc1sc2c(C)cccc2c1CCNc1cc(-c2ccc(C(=O)O)c(SC3COC3)c2)ncn1 [Example 131, 4-{6-[2-(2,7-Dimethyl-benzo[b]thiophen-3-yl)-ethylamino]-pyrimidin-4-yl}-2-(oxetan-3-ylsulfanyl)-benzoic acid]
IC50 (PTGER4 (EP4)): 1220 nM | IC50 (EP2 receptor): 22 nM

O=C(O)c1ccc(-c2cc(NCCc3csc4ccccc34)ncn2)cc1OC1CCC1 [Example 132, 4-[6-(2-Benzo[b]thiophen-3-yl-ethylamino)-pyrimidin-4-yl]-2-cyclobutoxy-benzoic acid]
IC50 (PTGER4 (EP4)): 561 nM | IC50 (EP2 receptor): 167 nM

COc1cc(Cl)cc2c(CCNc3cc(-c4ccc(C(=O)O)c(OC5CCC5)c4)ncn3)c(C)oc12 [Example 133, 4-{6-[2-(5-Chloro-7-methoxy-2-methyl-benzofuran-3-yl)-ethylamino]-pyrimidin-4-yl}-2-cyclobutoxy-benzoic acid]
IC50 (PTGER4 (EP4)): 74 nM | IC50 (EP2 receptor): 68 nM

COc1ccc(F)c2c(CCNc3cc(-c4ccc(C(=O)O)c(OC5CCC5)c4)ncn3)c(C)sc12 [Example 134, 2-Cyclobutoxy-4-{6-[2-(4-fluoro-7-methoxy-2-methyl-benzo[b]thiophen-3-yl)-ethylamino]-pyrimidin-4-yl}-benzoic acid]
IC50 (PTGER4 (EP4)): 893 nM | IC50 (EP2 receptor): 46 nM

COc1ccc(Cl)c2c(CCNc3cc(-c4ccc(C(=O)O)c(OC5CCC5)c4)ncn3)c(C)sc12 [Example 135, 4-{6-[2-(4-Chloro-7-methoxy-2-methyl-benzo[b]thiophen-3-yl)-ethylamino]-pyrimidin-4-yl}-2-cyclobutoxy-benzoic acid]
IC50 (PTGER4 (EP4)): 235 nM | IC50 (EP2 receptor): 30 nM

Cc1sc2c(C)ccc(F)c2c1CCNc1cc(-c2ccc(C(=O)O)c(OC3CCC3)c2)ncn1 [Example 136, 2-Cyclobutoxy-4-{6-[2-(4-fluoro-2,7-dimethyl-benzo[b]thiophen-3-yl)-ethylamino]-pyrimidin-4-yl}-benzoic acid]
IC50 (PTGER4 (EP4)): 155 nM | IC50 (EP2 receptor): 91 nM

Cc1oc2c(Cl)cccc2c1CCNc1cc(-c2ccc(C(=O)O)c(OC3CCC3)c2)ncn1 [Example 137, 4-{6-[2-(7-Chloro-2-methyl-benzofuran-3-yl)-ethylamino]-pyrimidin-4-yl}-2-cyclobutoxy-benzoic acid]
IC50 (PTGER4 (EP4)): 258 nM | IC50 (EP2 receptor): 49 nM

Cc1sc2c(C)cc(F)cc2c1CCNc1cc(-c2ccc(C(=O)O)c(OC3CCC3)c2)ncn1 [Example 138, 2-Cyclobutoxy-4-{6-[2-(5-fluoro-2,7-dimethyl-benzo[b]thiophen-3-yl)-ethylamino]-pyrimidin-4-yl}-benzoic acid]
IC50 (PTGER4 (EP4)): 269 nM | IC50 (EP2 receptor): 75 nM

COc1ccc(F)c2c(CCNc3cc(-c4ccc(C(=O)O)c(OC5CCC5)c4)ncn3)c(C)oc12 [Example 139, 2-Cyclobutoxy-4-{6-[2-(4-fluoro-7-methoxy-2-methyl-benzofuran-3-yl)-ethylamino]-pyrimidin-4-yl}-benzoic acid]
IC50 (PTGER4 (EP4)): 209 nM | IC50 (EP2 receptor): 245 nM

Cc1oc2c(C)cc(F)cc2c1CCNc1cc(-c2ccc(C(=O)O)c(OC3CCC3)c2)ncn1 [Example 140, 2-Cyclobutoxy-4-{6-[2-(5-fluoro-2,7-dimethyl-benzofuran-3-yl)-ethylamino]-pyrimidin-4-yl}-benzoic acid]
IC50 (PTGER4 (EP4)): 1420 nM | IC50 (EP2 receptor): 72 nM

COc1cc(F)c(F)c2c(CCNc3cc(-c4ccc(C(=O)O)c(OC5CCC5)c4)ncn3)c(C)oc12 [Example 141, 2-Cyclobutoxy-4-{6-[2-(4,5-difluoro-7-methoxy-2-methyl-benzofuran-3-yl)-ethylamino]-pyrimidin-4-yl}-benzoic acid]
IC50 (PTGER4 (EP4)): 340 nM | IC50 (EP2 receptor): 111 nM

CCOc1cc(-c2cc(NCCc3c(C)sc4c(C)cc(F)cc34)ncn2)ccc1-c1nnn[nH]1 [Example 142, {6-[3-Ethoxy-4-(1H-tetrazol-5-yl)-phenyl]-pyrimidin-4-yl}-[2-(5-fluoro-2,7-dimethyl-benzo[b]thiophen-3-yl)-ethyl]-amine]
IC50 (PTGER4 (EP4)): 41 nM | IC50 (EP2 receptor): 38 nM

CCOc1cc(-c2cc(NCCc3c(C)sc4c(C)cc(F)cc34)ncn2)ccc1OCCC(=O)O [Example 143, 3-(2-Ethoxy-4-{6-[2-(5-fluoro-2,7-dimethyl-benzo[b]thiophen-3-yl)-ethylamino]-pyrimidin-4-yl}-phenoxy)-propionic acid]
IC50 (PTGER4 (EP4)): 63 nM | IC50 (EP2 receptor): 86 nM

CCCCOc1cc(-c2cc(NCCc3c(C)sc4c(C)cc(F)cc34)ncn2)cc(F)c1C(=O)O [Example 144, 2-Butoxy-6-fluoro-4-{6-[2-(5-fluoro-2,7-dimethyl-benzo[b]thiophen-3-yl)-ethylamino]-pyrimidin-4-yl}-benzoic acid]
IC50 (PTGER4 (EP4)): 92 nM | IC50 (EP2 receptor): 26 nM

COc1ccc(F)c2c(CCNc3cc(-c4ccc(C(=O)O)c(OC5CCC5)c4F)ncn3)c(C)sc12 [Example 146, 2-Cyclobutoxy-3-fluoro-4-{6-[2-(4-fluoro-7-methoxy-2-methyl-benzo[b]thiophen-3-yl)-ethylamino]-pyrimidin-4-yl}-benzoic acid]
IC50 (PTGER4 (EP4)): 357 nM | IC50 (EP2 receptor): 47 nM

COc1cc(Cl)cc2c(CCNc3cc(-c4ccc(C(=O)O)c(OC5CCC5)c4F)ncn3)c(C)oc12 [Example 147, 4-{6-[2-(5-Chloro-7-methoxy-2-methyl-benzofuran-3-yl)-ethylamino]-pyrimidin-4-yl}-2-cyclobutoxy-3-fluoro-benzoic acid]
IC50 (PTGER4 (EP4)): 873 nM | IC50 (EP2 receptor): 117 nM

Cc1sc2c(C)ccc(F)c2c1CCNc1cc(-c2cc(F)c(C(=O)O)c(OC3CCC3)c2)ncn1 [Example 148, 2-Cyclobutoxy-6-fluoro-4-{6-[2-(4-fluoro-2,7-dimethyl-benzo[b]thiophen-3-yl)-ethylamino]-pyrimidin-4-yl}-benzoic acid]
IC50 (PTGER4 (EP4)): 43 nM | IC50 (EP2 receptor): 109 nM

COc1ccc(F)c2c(CCNc3cc(-c4cc(F)c(C(=O)O)c(OC5CCC5)c4)ncn3)c(C)sc12 [Example 149, 2-Cyclobutoxy-6-fluoro-4-{6-[2-(4-fluoro-7-methoxy-2-methyl-benzo[b]thiophen-3-yl)-ethylamino]-pyrimidin-4-yl}-benzoic acid]
IC50 (PTGER4 (EP4)): 67 nM | IC50 (EP2 receptor): 114 nM

COc1cc(F)c(F)c2c(CCNc3cc(-c4cc(F)c(C(=O)O)c(OC5CCC5)c4)ncn3)c(C)oc12 [Example 150, 2-Cyclobutoxy-4-{6-[2-(4,5-difluoro-7-methoxy-2-methyl-benzofuran-3-yl)-ethylamino]-pyrimidin-4-yl}-6-fluoro-benzoic acid]
IC50 (PTGER4 (EP4)): 363 nM | IC50 (EP2 receptor): 97 nM

COc1cc(Cl)cc2c(CCNc3cc(-c4cc(F)c(C(=O)O)c(OC5CCC5)c4)ncn3)c(C)oc12 [Example 151, 4-{6-[2-(5-Chloro-7-methoxy-2-methyl-benzofuran-3-yl)-ethylamino]-pyrimidin-4-yl}-2-cyclobutoxy-6-fluoro-benzoic acid]
IC50 (PTGER4 (EP4)): 163 nM | IC50 (EP2 receptor): 95 nM

Cc1sc2c(C)cc(F)cc2c1CCNc1cc(-c2ccc(C(=O)O)c(OC3CCCC3)c2)ncn1 [Example 152, 2-Cyclopentyloxy-4-{6-[2-(5-fluoro-2,7-dimethyl-benzo[b]thiophen-3-yl)-ethylamino]-pyrimidin-4-yl}-benzoic acid]
IC50 (PTGER4 (EP4)): 337 nM | IC50 (EP2 receptor): 84 nM

COc1ccc(Cl)c2c(CCNc3cc(-c4ccc(C(=O)O)c(OC5CCCC5)c4)ncn3)c(C)sc12 [Example 153, 4-{6-[2-(4-Chloro-7-methoxy-2-methyl-benzo[b]thiophen-3-yl)-ethylamino]-pyrimidin-4-yl}-2-cyclopentyloxy-benzoic acid]
IC50 (PTGER4 (EP4)): 157 nM | IC50 (EP2 receptor): 212 nM

Cc1oc2c(C)cc(F)cc2c1CCNc1cc(-c2ccc(C(=O)O)c(OC3CCCC3)c2)ncn1 [Example 154, 2-Cyclopentyloxy-4-{6-[2-(5-fluoro-2,7-dimethyl-benzofuran-3-yl)-ethylamino]-pyrimidin-4-yl}-benzoic acid]
IC50 (PTGER4 (EP4)): 911 nM | IC50 (EP2 receptor): 70 nM
